Experimental data taken from patent US11014884B2 (Global Blood Therapeutics, Inc., priority 2018, dated 2021).

Biological target: T1, hemoglobin (Homo sapiens, UniProt P69905)
T1 construct: from tissue; host or cells: whole blood (red blood cells)
Assay: Whole blood assay: oxygen equilibrium curves (Hemox Analyzer), change in p50
Assay type: cell-based
Conditions: whole blood 20% Hct (1 mM Hb), compound 1 mM, equimolar to hemoglobin, 1 h at 37° C.
Description: Oxygen equilibrium curves (OECs) were collected using a TCS Hemox Analyzer (TCS Scientific Company, New Hope, Pa., USA) to measure changes in the binding affinity of 02 to Hb. Whole blood was incubated for 1 h at 37° C. with the indicated compounds in an equimolar ratio of hemoglobin to compound and diluted into TES (2-[[1,3-dihydroxy-2-(hydroxymethyl)propan-2-yl]amino]ethanesulfonic acid)/saline buffer prior to measurements. For example, for whole blood at 20% hematocrit [Hct], which corresponds to 1 mM Hb, a compound concentration of 1 mM was used (for example, for compounds 1-53), and the incubated sample diluted 50- to 100-fold. The concentration for compound 54 was 1.7 mM and in equimolar ratio to hemoglobin. The diluted samples were then oxygenated with compressed air within the Hemox Analyzer, and the OECs were collected during deoxygenation as previously described (Guarnone et al., Haematologica, 1995, 80, 426-430). p50 (partial pressure of 02 at which Hb is 50% saturated with 02) values were obtained using a non-linear regression analysis. Percentage change in p50 [Δp50(%)] was calculated as follows: Δp50(%)=[(p50 of control)−p50 with compound)/p50 control]×100.

T1 sequence (P69905 2-142 limits assumed): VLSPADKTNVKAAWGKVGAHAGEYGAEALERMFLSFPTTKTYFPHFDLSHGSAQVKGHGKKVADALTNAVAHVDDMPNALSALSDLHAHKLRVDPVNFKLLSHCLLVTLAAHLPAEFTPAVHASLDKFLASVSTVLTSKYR
T1 sequence (P68871 2-147 partner limits assumed): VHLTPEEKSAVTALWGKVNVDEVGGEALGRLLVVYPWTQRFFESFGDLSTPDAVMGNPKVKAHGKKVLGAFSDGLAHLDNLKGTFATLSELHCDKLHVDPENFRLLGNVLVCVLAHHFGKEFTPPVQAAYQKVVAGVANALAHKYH

| Structure (SMILES) | Delta-p50 (%) |
| --- | --- |
| COc1ccc(C=O)cc1-c1ncccc1COc1cccc(O)c1C=O [Compound 6, 3-{3-[(2-formyl-3-hydroxyphenoxy)methyl]pyridin-2-yl}-4-methoxybenzaldehyde] | 16.7% |
| COc1ncc(C=O)cc1-c1ncccc1COc1cccc(O)c1C=O [Compound 7, 3-[(2-formyl-3-hydroxyphenoxy)methyl]-2′-methoxy-[2,3′-bipyridine]-5′-carbaldehyde] | 32.5% |
| O=Cc1cccc(-c2ncccc2COc2cccc(O)c2C=O)c1 [Compound 8, 3-{3-[(2-formyl-3-hydroxyphenoxy)methyl]pyridin-2-yl}benzaldehyde] | 44.8% |
| O=Cc1cc(-c2ncccc2COc2cccc(O)c2C=O)co1 [Compound 11, 4-{3-[(2-formyl-3-hydroxyphenoxy)methyl]pyridin-2-yl}furan-2-carbaldehyde] | 17.2% |
| Cc1cccc(C(=O)N2CCCC[C@@H]2COc2cccc(O)c2C=O)c1C=O [Compound 46, 2-[(2R)-2-[(2-formyl-3-hydroxyphenoxy)methyl]piperidine-1-carbonyl]-6-methylbenzaldehyde] | 69% |
| O=Cc1c(O)cccc1OC[C@@H]1CCCCN1C(=O)c1cccc(F)c1C=O [Compound 47, 2-fluoro-6-[(2S)-2-[(2-formyl-3-hydroxyphenoxy)methyl]piperidine-1-carbonyl]benzaldehyde] | 70% |
| COc1cccc(C(=O)N2CCOC[C@H]2COc2cccc(O)c2C=O)c1C=O [Compound 48, 2-[(3S)-3-[(2-formyl-3-hydroxyphenoxy)methyl]morpholine-4-carbonyl]-6-methoxybenzaldehyde] | 70.3% |
| COc1cccc(C(=O)N2CCCC[C@@H]2COc2cccc(O)c2C=O)c1C=O [Compound 49, 2-[(2R)-2-[(2-formyl-3-hydroxyphenoxy)methyl]piperidine-1-carbonyl]-6-methoxybenzaldehyde] | 59% |
| CCOc1cccc(C(=O)N2CCCC[C@@H]2COc2cccc(O)c2C=O)c1C=O [Compound 50, 2-ethoxy-6-[(2R)-2-[(2-formyl-3-hydroxyphenoxy)methyl]piperidine-1-carbonyl]benzaldehyde] | 45.3% |
| O=Cc1c(O)cccc1OC[C@@H]1CCCCN1C(=O)c1cccc(Cl)c1C=O [Compound 51, 2-chloro-6-[(2S)-2-[(2-formyl-3-hydroxyphenoxy)methyl]piperidine-1-carbonyl]benzaldehyde] | 65.5% |
| CCOc1cccc(C(=O)N2CCC[C@H]2COc2cccc(O)c2C=O)c1C=O [Compound 52, 2-ethoxy-6-[(2S)-2-[(2-formyl-3-hydroxyphenoxy)methyl]pyrrolidine-1-carbonyl]benzaldehyde] | 75.5% |
| O=Cc1cnccc1C(=O)N1CCCC[C@H]1COc1cccc(O)c1C=O [Compound 53, 4-[(2S)-2-[(2-formyl-3-hydroxyphenoxy)methyl]piperidine-1-carbonyl]pyridine-3-carbaldehyde] | 71.9% |

Same assay, conditions: whole blood, compound 1.7 mM, equimolar to hemoglobin, 1 h at 37° C.

| Structure (SMILES) | Delta-p50 (%) |
| --- | --- |
| CC1(COc2cccc(O)c2C=O)COCCN1C(=O)c1cccc(O)c1C=O (stereo not shown) [Compound 54, 2-((4-(2-formyl-3-hydroxybenzoyl)-3-methylmorpholin-3-yl)methoxy)-6-hydroxybenzaldehyde] | 72.6% |

Biological target: Purified hemoglobin (Homo sapiens, UniProt P69905)
Sequence (P69905 2-142 limits assumed): as the sequence (P69905 2-142 limits assumed) above
Sequence (P68871 2-147 partner limits assumed): as the sequence (P68871 2-147 partner limits assumed) above
Assay: Hemoglobin assay: oxygen equilibrium curves with purified hemoglobin, change in p50
Assay type: biochemical
Conditions: purified hemoglobin 25 μM, compound 25 μM, 1 h at 37° C.
Description: Hemoglobin assay: Oxygen equilibrium curves (OECs) were collected as described above. Purified hemoglobin (25 μM) was incubated for 1 h at 37° C. with the indicated compounds (30 μM for compounds 6, 7, 8, and 11; 25 μM for compounds 55 to 67 (Enantiomer 1 and Enantiomer 2)) in 5 ml of TES (2-[[1,3-dihydroxy-2-(hydroxymethyl)propan-2-yl]amino]ethanesulfonic acid)/saline buffer prior to measurements. The samples were then oxygenated with compressed air within the Hemox Analyzer and the OECs were collected during deoxygenation as previously described. p50 values were obtained using a non-linear regression analysis, and Δp50(%) was calculated as described above.

| Structure (SMILES) | Delta-p50 (%) |
| --- | --- |
| O=Cc1c(O)cccc1CN1C(=O)CCCC1COc1cccc(O)c1C=O (racemic) [Compound 66, 2-((1-(2-formyl-3-hydroxybenzyl)-6-oxopiperidin-2-yl)methoxy)-6-hydroxybenzaldehyde] | 71% |
| O=Cc1c(O)cccc1OCC1CSCCN1C(=O)c1cccc(O)c1C=O (single isomer, unassigned) [67 (Enantiomer 1), 2-((4-(2-formyl-3-hydroxybenozyl)thiomorpholin-3-yl)methoxy)-6-hydroxybenzaldehyde] | 67.2% |
| O=Cc1c(O)cccc1OCC1CSCCN1C(=O)c1cccc(O)c1C=O (single isomer, unassigned) [67 (Enantiomer 2), 2-((4-(2-formyl-3-hydroxybenzoyl)thiomorpholin-3-yl)methoxy)-6-hydroxybenzaldehyde] | 69.3% |
| CC1(C)CN(C(=O)c2cccc(O)c2C=O)C(COc2cccc(O)c2C=O)CO1 (stereo in doubt) [Compound 64] | 67% |
| O=Cc1ccccc1OC[C@@H]1CCCCN1C(=O)c1cccc(O)c1C=O [Compound 55, (S)-2-(2-((2-formylphenoxy)methyl)piperidine-1-carbonyl)-6-hydroxybenzaldehyde] | 71% |
| O=Cc1ccccc1OC[C@@H]1COCCN1C(=O)c1cccc(O)c1C=O [Compound 56, (S)-2-(3-((2-formylphenoxy)methyl)morpholine-4-carbonyl)-6-hydroxybenzaldehyde] | 70% |
| COc1ccc(C(=O)N2CCCC[C@H]2COc2cccc(O)c2C=O)c(C=O)c1O [Compound 57, (S)-6-(2-((2-formyl-3-hydroxyphenoxy)methyl)piperidine-1-carbonyl)-2-hydroxy-3-methoxybenzaldehyde] | 71% |
| O=Cc1cccc(C(=O)N2CCC[C@@H](COc3cccc(O)c3C=O)C2)c1O [Compound 58] | 71% |
| O=Cc1c(O)cccc1OC[C@H]1CN(C(=O)c2cccc(O)c2C=O)CCO1 [Compound 59, 2-[[(2R)-4-(2-formyl-3-hydroxybenzoyl)morpholin-2-yl]methoxy]-6-hydroxybenzaldehyde] | 71% |
| CC1CN(C(=O)c2cccc(O)c2C=O)C(COc2cccc(O)c2C=O)CO1 (stereo not shown) [Compound 60, 2-((4-(2-formyl-3-hydroxybenzoyl)-6-methylmorpholin-3-yl)methoxy)-6-hydroxybenzaldehyde] | 67% |
| O=Cc1cc(C(=O)N2CCC[C@@H](COc3cccc(O)c3C=O)C2)ccc1O [Compound 61, 2-[[(3R)-1-(3-formyl-4-hydroxybenzoyl)piperidin-3-yl]methoxy]-6-hydroxybenzaldehyde] | 71% |
| O=Cc1c(O)cccc1OC[C@H]1CN(C(=O)c2cccc(O)c2C=O)CCO1 [Compound 62, 2-[[(2R)-4-(2-formyl-3-hydroxybenzoyl)morpholin-2-yl]methoxy]-6-hydroxybenzaldehyde] | 69% |
| O=Cc1c(O)cccc1OC[C@@H]1CCCN(C(=O)Oc2cccc(O)c2C=O)C1 [Compound 63, 2-formyl-3-hydroxyphenyl (3R)-3-(2-formyl-3-hydroxyphenoxymethyl)piperidine-1-carboxylate] | 70% |
| CC1(C)C[C@@H](COc2cccc(O)c2C=O)N(C(=O)c2cccc(O)c2C=O)C1 [Compound 65, 2-[[(2S)-1-(2-formyl-3-hydroxybenzoyl)-4,4-dimethylpyrrolidin-2-yl]methoxy]-6-hydroxybenzaldehyde] | 69% |

Same assay, conditions: purified hemoglobin 25 μM, compound 30 μM, 1 h at 37° C.

| Structure (SMILES) | Delta-p50 (%) |
| --- | --- |
| COc1ccc(C=O)cc1-c1ncccc1COc1cccc(O)c1C=O [Compound 6, 3-{3-[(2-formyl-3-hydroxyphenoxy)methyl]pyridin-2-yl}-4-methoxybenzaldehyde] | 60.66% |
| COc1ncc(C=O)cc1-c1ncccc1COc1cccc(O)c1C=O [Compound 7, 3-[(2-formyl-3-hydroxyphenoxy)methyl]-2′-methoxy-[2,3′-bipyridine]-5′-carbaldehyde] | 58.29% |
| O=Cc1cccc(-c2ncccc2COc2cccc(O)c2C=O)c1 [Compound 8, 3-{3-[(2-formyl-3-hydroxyphenoxy)methyl]pyridin-2-yl}benzaldehyde] | 57.3% |
| O=Cc1cc(-c2ncccc2COc2cccc(O)c2C=O)co1 [Compound 11, 4-{3-[(2-formyl-3-hydroxyphenoxy)methyl]pyridin-2-yl}furan-2-carbaldehyde] | 14.12% |
